Read-outs that look alike come from different tables or passages of the source.
Tests used:
MRSA = test: Disk diffusion assay, zone of inhibition, MRSA; type: cell-based, Staphylococcus aureus; conditions: disk diffusion zone of inhibition
M. smegmatis (mc2155) = test: Disk diffusion assay, zone of inhibition, M. smegmatis; type: cell-based; conditions: disk diffusion zone of inhibition
[1] = test system: S. aureus ATCC 29213 (MSSA); test: Broth dilution MIC, S. aureus ATCC 29213; type: cell-based; conditions: Staphylococcus aureus
[2] = test system: S. aureus ATCC 33591 (MRSA); test: Broth dilution MIC, S. aureus ATCC 33591; type: cell-based; conditions: Staphylococcus aureus
S. aureus BAA-39 (MDR) = test: Broth dilution MIC, S. aureus BAA-39; type: cell-based; conditions: Staphylococcus aureus, BAA39
[3] = test system: S. pneumoniae ATCC 6301 (PSSP); test: Broth dilution MIC, S. pneumoniae ATCC 6301; type: cell-based; conditions: Streptococcus pneumoniae
[4] = test system: S. pneumoniae ATCC 700674 (PRSP); test: Broth dilution MIC, S. pneumoniae ATCC 700674; type: cell-based; conditions: Streptococcus pneumoniae
[5] = test system: E. faecalis ATCC 29212 (VRE); test: Broth dilution MIC, E. faecalis ATCC 29212; type: cell-based
[6] = test system: E. faecium ATCC 700221 (VRE); test: Broth dilution MIC, E. faecium ATCC 700221; type: cell-based
E. faecium CT-26 = test: Broth dilution MIC, E. faecium CT-26; type: cell-based; conditions: Enterococcus faecium
E. coli ECM 1694 = test: Broth dilution MIC, E. coli ECM 1694; type: cell-based; conditions: Escherichia coli
E. coli ATCC 25922 = test: Broth dilution MIC, E. coli ATCC 25922; type: cell-based; conditions: Escherichia coli
K. pneumoniae ATCC 13883 = test: Broth dilution MIC, K. pneumoniae ATCC 13883; type: cell-based; conditions: Klebsiella pneumoniae
K. pneumoniae ATCC 51503 = test: Broth dilution MIC, K. pneumoniae ATCC 51503; type: cell-based; conditions: Klebsiella pneumoniae
P. aeruginosa ATCC 9027 = test: Broth dilution MIC, P. aeruginosa ATCC 9027; type: cell-based; conditions: Pseudomonas aeruginosa
C. albicans ATCC 14053 = test: Broth dilution MIC, C. albicans ATCC 14053; type: cell-based; conditions: Candida albicans, ATCC14053; Table 1; range 64 down to 0.12 μg/ml
Experimental: In vitro Anti-bacterial & Anti-fungal Activity Assay: All test compounds were prepared as 6.4 mg/ml stock solutions in DMSO and further diluted according to the NCCLS M7-A6 (Page 5) document with sterile water or appropriate diluent. A working stock of 256 μg/ml was used to do 1:2 serial dilutions in 96-well plates. […] The inoculums were prepared by making a direct sterile water suspension of isolated colonies from 18 to 24 hr agar plates for all organisms (Mueller Hinton, Blood Agar or SDA plates). Each bacterial suspension was adjusted to read between 0.09 and 0.11 absorbance at 620 nm. […] These were further diluted 1/100 in appropriate broth for inoculating the 96-well plates. The C. albicans suspension was adjusted to read between 70 and 75% Transmittance at 530 nm and then diluted 1/500 in RPMI+MOPS broth. All aerobic bacterial and fungal plates were incubated for 18 hrs. at 35° C. […] Plates were read using a Beckman Automated Plate Reader at 650 nm. Readings were confirmed by visual examination of plates. (See Table 1, Table 2, Table 3, and Table 4). […] It is important to note that positive results against C. albicans are often indicative of broad spectrum antifungal activity, while negative results are not necessarily conclusory of a lack of activity against other fungus.

[7] = Table 1, range 64 down to 0.12 μg/ml, read-out: MIC S. aureus ATCC 29213
[8] = Table 2, broth dilution MIC in ug/ml, read-out: MIC S aureus ATCC 29213 MSSA
[9] = Table 1, range 64 down to 0.12 μg/ml, read-out: MIC S. aureus ATCC 33591
[10] = Table 2, broth dilution MIC in ug/ml, read-out: MIC S aureus ATCC 33591 MRSA
[11] = Table 1, range 64 down to 0.12 μg/ml, read-out: MIC S. aureus BAA-39
[12] = Table 2, broth dilution MIC in ug/ml, read-out: MIC S aureus BAA-39 MDR
[13] = ATCC6301, Table 1, range 64 down to 0.12 μg/ml, read-out: MIC S. pneumoniae ATCC 6301
[14] = ATCC6301, Table 2, broth dilution MIC in ug/ml, read-out: MIC S pneumonia ATCC 6301 PSSP
[15] = Table 1, range 64 down to 0.12 μg/ml, read-out: MIC S. pneumoniae ATCC 700674
[16] = Table 2, broth dilution MIC in ug/ml, read-out: MIC S pneumonia ATCC 700674 PRSP
[17] = Enterococcus faecalis, Table 1, range 64 down to 0.12 μg/ml, read-out: MIC E. faecalis ATCC 29212
[18] = Table 2, broth dilution MIC in ug/ml, read-out: MIC E faecalis ATCC 29212 VRE
[19] = Enterococcus faecium, Table 1, range 64 down to 0.12 μg/ml, read-out: MIC E. faecium ATCC 700221
[20] = Table 2, broth dilution MIC in ug/ml, read-out: MIC E faecium ATCC 700221 VRE
[21] = CT26, Table 1, range 64 down to 0.12 μg/ml, read-out: MIC E. faecium CT-26
[22] = CT26, Table 2, broth dilution MIC in ug/ml, read-out: MIC E faecium CT-25
[23] = ECM1694, Table 1, range 64 down to 0.12 μg/ml, read-out: MIC E. coli ECM 1694
[24] = ECM1694, Table 2, broth dilution MIC in ug/ml, read-out: MIC E. coli ECM 1693
[25] = ATCC 25921 / ATCC 25922, Table 2, broth dilution MIC in ug/ml, read-out: MIC E. coli ATCC 25921
[26] = ATCC25922, Table 1, range 64 down to 0.12 μg/ml, read-out: MIC E. coli ATCC 25922
[27] = ATCC13883, Table 1, range 64 down to 0.12 μg/ml, read-out: MIC K. pneumoniae ATCC 13883
[28] = ATCC13883, Table 2, broth dilution MIC in ug/ml, read-out: MIC K pneumonia ATCC 13883
[29] = ATCC51503, Table 1, range 64 down to 0.12 μg/ml, read-out: MIC K. pneumoniae ATCC 51503
[30] = ATCC51503, Table 2, broth dilution MIC in ug/ml, read-out: MIC K pneumonia ATCC 51503
[31] = ATCC 9026 / ATCC 9027, Table 2, broth dilution MIC in ug/ml, read-out: MIC P aeruginosa ATCC 9026
[32] = ATCC9027, Table 1, range 64 down to 0.12 μg/ml, read-out: MIC P. aeruginosa ATCC 9027

Nc1ccc(-c2ccc3cc(-c4ccc(Nc5ccc(C6=NCCN6)cc5)cc4)[nH]c3c2)cc1 [SKI-20]
64 µg/mL: MIC [1, 8] | MIC [2, 10] | MIC (S. aureus BAA-39 (MDR); [12]) | MIC (E. coli ECM 1694; [23]) | MIC (E. coli ECM 1694; [24]) | MIC (E. coli ATCC 25922; [25]) | MIC (K. pneumoniae ATCC 13883; [28]) | MIC (K. pneumoniae ATCC 51503; [30]) | MIC (P. aeruginosa ATCC 9027; [31])
16 µg/mL: MIC [6, 19] | MIC [6, 20]
2 µg/mL: MIC [3, 13] | MIC [3, 14]
> 64 µg/mL: MIC [1, 7] | MIC [2, 9] | MIC (S. aureus BAA-39 (MDR); [11]) | MIC (E. coli ATCC 25922; [26]) | MIC (K. pneumoniae ATCC 13883; [27]) | MIC (K. pneumoniae ATCC 51503; [29]) | MIC (P. aeruginosa ATCC 9027; [32]) | MIC (C. albicans ATCC 14053)
4 µg/mL: MIC [4, 15] | MIC [4, 16]
32 µg/mL: MIC [5, 17] | MIC [5, 18]
8 mm: Zone Size M. smegmatis (M. smegmatis (mc2155))
9 mm: Zone Size MRSA (MRSA)
8 µg/mL: MIC (E. faecium CT-26; [21]) | MIC (E. faecium CT-26; [22])

c1ccc(Nc2ccc(-c3cc4ccc(C5=NCCN5)cc4[nH]3)cc2)cc1 [SKI-2]
14.3 mm: Zone Size M. smegmatis (M. smegmatis (mc2155))
32 µg/mL: MIC (K. pneumoniae ATCC 13883; [27]) | MIC (K. pneumoniae ATCC 13883; [28])
4 µg/mL: MIC [2, 9] | MIC [2, 10] | MIC (S. aureus BAA-39 (MDR); [11]) | MIC (S. aureus BAA-39 (MDR); [12]) | MIC [4, 15] | MIC [4, 16]
2 µg/mL: MIC [3, 13] | MIC [3, 14] | MIC [5, 17] | MIC [5, 18] | MIC [6, 19] | MIC [6, 20] | MIC (E. faecium CT-26; [21]) | MIC (E. faecium CT-26; [22]) | MIC (E. coli ECM 1694; [23]) | MIC (E. coli ECM 1694; [24])
8 µg/mL: MIC [1, 7] | MIC [1, 8]
10 mm: Zone Size MRSA (MRSA)
16 µg/mL: MIC (E. coli ATCC 25922; [25]) | MIC (E. coli ATCC 25922; [26]) | MIC (C. albicans ATCC 14053)
64 µg/mL: MIC (K. pneumoniae ATCC 51503; [29]) | MIC (K. pneumoniae ATCC 51503; [30]) | MIC (P. aeruginosa ATCC 9027; [31]) | MIC (P. aeruginosa ATCC 9027; [32])
